According to US11787799B2 (priority 2015, dated 2023):
Several values for one entry are separate records, joined by “and”; a condition that tells them apart may be missing. Equal entries are not always repeated. Where two headings read alike, the source gives them in different places.

Columns and labels:
Coxsackievirus B1 = test: microbe, parasite or virus in culture; assay type: cell-based
Echovirus 30 = test: microbe, parasite or virus in culture; assay type: cell-based; details: read-out: EC50 ECHO30
Coxsackievirus B5 = test: microbe, parasite or virus in culture; assay type: cell-based
Coxsackievirus B2 = test: microbe, parasite or virus in culture; assay type: cell-based
Echovirus 25 = test: microbe, parasite or virus in culture; assay type: cell-based; details: read-out: EC50 ECHO25
Poliovirus 1 = test: microbe, parasite or virus in culture; assay type: cell-based; details: read-out: EC50 PV1
Enterovirus 71 = test: microbe, parasite or virus in culture; assay type: cell-based
SARS Coronavirus = assay type: cell-based
[1] = tested on: Enterovirus D68/US/KY/14-18953; test: Antiviral assay, Enterovirus D68 strain US/KY/14-18953 in RD cells; assay type: cell-based
Vero = details: read-out: CC50 (Yellow Fever Virus test)
Echovirus 7 = test: microbe, parasite or virus in culture; assay type: cell-based; details: read-out: EC50 ECHO07
Coxsackievirus B3-H3 = test: microbe, parasite or virus in culture; assay type: cell-based
Influenza A H1N1 = test: microbe, parasite or virus in culture; assay type: cell-based; details: read-out: EC50 Influenza A H1N1
Rabies = assay type: cell-based, rabies virus
Punta Toro virus = test: microbe, parasite or virus in culture; assay type: cell-based; details: read-out: EC50 Punta Toro virus
Venezuelan Encephalitis = assay type: cell-based, Venezuelan encephalitis virus
Coxsackievirus B4 = test: microbe, parasite or virus in culture; assay type: cell-based
Powassan = assay type: cell-based, Powassan virus
Echovirus 9 = test: microbe, parasite or virus in culture; assay type: cell-based; details: read-out: EC50 ECHO09
BHK = details: read-out: CC50 (Powassan test)
Japanese Encephalitis = assay type: cell-based
Yellow Fever Virus = test: microbe, parasite or virus in culture; assay type: cell-based; details: read-out: EC50 Yellow Fever Virus
Measles = test: microbe, parasite or virus in culture; assay type: cell-based; details: read-out: EC50 Measles
[2] = tested on: Enterovirus D68/US/Mo/14-18949; test: Antiviral assay, Enterovirus D68 strain US/Mo/14-18949 in RD cells; assay type: cell-based
BHK-21 = details: read-out: CC50 (Rabies test)
Echovirus 6 = test: microbe, parasite or virus in culture; assay type: cell-based; details: read-out: EC50 ECHO06
[3] = tested on: RSV (resp syncitial virus); test: microbe, parasite or virus in culture; assay type: cell-based; details: read-out: EC50 RSV
Rift Valley virus = test: organism not typed; assay type: cell-based; details: read-out: EC50 Rift Valley virus
Poliovirus 3 = test: microbe, parasite or virus in culture; assay type: cell-based; details: read-out: EC50 PV3
Coxsackievirus A9 = test: microbe, parasite or virus in culture; assay type: cell-based
Enterovirus D68/Fermon = test: Antiviral assay, Enterovirus D68 strain Fermon in RD cells; assay type: cell-based
Chikungunya = assay type: cell-based, chikungunya virus
Echovirus 11 = test: microbe, parasite or virus in culture; assay type: cell-based; details: Enterovirus B, read-out: EC50 ECHO11
in vitro [4] = details: human
in vitro [5] = test: in vitro
[6] = read-out: CC50 (Rift Valley virus test), with Rift Valley virus MP-12 test
[7] = read-out: CC50 (SARS Coronavirus test), with SARS Coronavirus Urbani test
[8] = Enterovirus B, B1 / CVB1, read-out: EC50 CVB1
[9] = Enterovirus B, B5 / CVB5, read-out: EC50 CVB5
[10] = Enterovirus B, B2 / CVB2, read-out: EC50 CVB2
[11] = Enterovirus A, EV71, read-out: EC50 EV71
[12] = Coxsackievirus, B3 / CVB3, read-out: EC50 CVB3-H3
[13] = Enterovirus B, B4 / CVB4, read-out: EC50 CVB4
[14] = Enterovirus B, A9, read-out: EC50 COX A9

CC(C)n1ncc2c(C(=O)Nc3cccc(S(N)(=O)=O)c3)cc(-c3cccs3)nc21 [JX-025]
EC50 (Coxsackievirus B1; read-out: EC50 CVB1): 1.2 µM
EC50 (Echovirus 30): 0.6 µM
CC50 (Vero 76; [6]): > 100 µM
CC50 (Vero 76; [7]): 7.2 µM
EC50 (Coxsackievirus B5; read-out: EC50 CVB5): 1.2 µM
EC50 (Coxsackievirus B2; read-out: EC50 CVB2): 1.2 µM
EC50 (Echovirus 25): 1.1 µM
EC50 (Poliovirus 1): 5 µM
CC50 (RD cells): 50 µM
EC50 (Enterovirus 71; read-out: EC50 EV71): 1.3 ± 0.1 µM
CC50 (MA-104): > 100 µM
EC50 (SARS Coronavirus): > 7.2 µM
EC50 [1]: 0.15 µM
CC50 (Vero): 4.8 µM
EC50 (Echovirus 7): 2.1 ± 0.6 µM
EC50 (Coxsackievirus B3-H3; read-out: EC50 CVB3-H3): 0.3 µM
EC50 (Influenza A H1N1): > 100 µM
EC50 (Rabies): > 12.2 µM
EC50 (Punta Toro virus): 38 µM
CC50 (LLC cells): 25 µM
EC50 (Venezuelan Encephalitis): > 0.88 µM
EC50 (Coxsackievirus B4; read-out: EC50 CVB4): 1.1 ± 0.2 µM
EC50 (Powassan): > 8.9 µM
EC50 (Echovirus 9): 1.2 µM
CC50 (BHK): 8.9 µM
EC50 (Japanese Encephalitis): 0.31 µM
EC50 (Yellow Fever Virus): > 4.8 µM
EC50 (Measles): 7.1 µM
EC50 [2]: 0.06 ± 0.02 µM
CC50 (BHK-21): 12.2 µM
EC50 (Echovirus 6): 1.1 ± 0.3 µM
CC50 (HeLa-RW cells): 50 µM
EC50 [3]: > 100 µM
EC50 (Rift Valley virus): > 100 µM
EC50 (Poliovirus 3): 5 µM
EC50 (Coxsackievirus A9; read-out: EC50 COX A9): 2.1 ± 0.7 µM
CC50 (MDCK): > 100 µM
EC50 (Enterovirus D68/Fermon): 0.1 µM and 0.15 µM
EC50 (Chikungunya): 0.3 µM

CC(C)n1ncc2c(C(=O)Nc3ccc(F)cc3)cc(-c3ccsc3)nc21 [JX-030]
EC50 (Coxsackievirus B1; read-out: EC50 CVB1): 1.6 ± 0.1 µM
EC50 (Echovirus 30): 0.6 µM
CC50 (Vero 76; [6]): 169 µM
CC50 (Vero 76; [7]): 18.7 µM
EC50 (Coxsackievirus B5; read-out: EC50 CVB5): 1.2 ± 0.1 µM
EC50 (Coxsackievirus B2; read-out: EC50 CVB2): 1.6 ± 0.1 µM
EC50 (Echovirus 25): 0.9 µM
EC50 (Poliovirus 1): > 25 µM
CC50 (RD cells): 25 µM
EC50 (Enterovirus 71; read-out: EC50 EV71): 1.4 ± 0.2 µM
CC50 (MA-104): 67.6 µM
EC50 (SARS Coronavirus): 4.4 µM
EC50 [1]: 0.6 µM
CC50 (Vero): 11.1 µM
EC50 (Echovirus 7): 2.6 ± 0.1 µM
EC50 (Coxsackievirus B3-H3; read-out: EC50 CVB3-H3): 1.3 ± 0.1 µM
EC50 (Influenza A H1N1): 10.7 µM
EC50 (Rabies): 88.4 µM
EC50 (Punta Toro virus): > 78 µM
CC50 (LLC cells): > 100 µM
EC50 (Venezuelan Encephalitis): > 9.4 µM
EC50 (Coxsackievirus B4; read-out: EC50 CVB4): 2.2 ± 0.1 µM
EC50 (Powassan): > 85.8 µM
EC50 (Echovirus 9): 1.9 µM
CC50 (BHK): > 85.8 µM
EC50 (Japanese Encephalitis): 3.4 µM
EC50 (Yellow Fever Virus): > 11.1 µM
EC50 (Measles): 20.5 µM
EC50 [2]: 0.3 µM
CC50 (BHK-21): > 260 µM
EC50 (Echovirus 6): 1.2 ± 0.1 µM
CC50 (HeLa-RW cells): 25 µM
EC50 [3]: 7 µM
EC50 (Rift Valley virus): 140 µM
EC50 (Poliovirus 3): > 25 µM
EC50 (Coxsackievirus A9; read-out: EC50 COX A9): 1.7 ± 0.1 µM
CC50 (MDCK): 17.7 µM
EC50 (Chikungunya): > 1.3 µM

CC(C)n1ncc2c(N(C(=O)c3ccc(F)cc3)C(=O)c3ccc(F)cc3)cc(-c3cccs3)nc21 [JX-039]
EC50 (Coxsackievirus B1; [8]): 4.7 µM
EC50 (Echovirus 30; Enterovirus B): > 10 µM
EC50 (Coxsackievirus B5; [9]): > 10 µM
EC50 (Coxsackievirus B2; [10]): 4.7 µM
EC50 (Echovirus 11): > 10 µM
EC50 (Echovirus 25; Enterovirus B): > 10 µM
EC50 (Poliovirus 1; Enterovirus C): > 10 µM
EC50 (Enterovirus 71; [11]): 3.2 ± 0.1 µM
CC50 (in vitro [4]): 10 µM
EC50 (Echovirus 7; Enterovirus B): > 10 µM
EC50 (Coxsackievirus B3-H3; [12]): 4.7 µM
EC50 (Coxsackievirus B4; [13]): > 10 µM
EC50 (Echovirus 9; Enterovirus B): > 10 µM
EC50 (Echovirus 6; Enterovirus B): 2.4 µM
EC50 (Poliovirus 3; Enterovirus C): > 10 µM
EC50 (Coxsackievirus A9; [14]): 4.5 µM

CC(C)n1ncc2c(NC(=O)c3ccc(F)cc3)cc(-c3cccs3)nc21 [JX-054]
EC50 (Coxsackievirus B1; [8]): 4.7 µM
EC50 (Echovirus 30; Enterovirus B): 4.7 µM
EC50 (Coxsackievirus B5; [9]): 4.7 µM
EC50 (Coxsackievirus B2; [10]): 4.7 µM
EC50 (Echovirus 11): 3.1 µM
EC50 (Poliovirus 1; Enterovirus C): > 10 µM
EC50 (Enterovirus 71; [11]): 4 µM
EC50 ([1]; Enterovirus D): 3.4 ± 1.18 µM
EC50 (Echovirus 7; Enterovirus B): 4.7 µM
EC50 (Coxsackievirus B3-H3; [12]): 4.7 µM
EC50 (Coxsackievirus B4; [13]): 4.7 µM
EC50 (Echovirus 9; Enterovirus B): 2.4 µM
EC50 ([2]; Enterovirus D): 2.53 ± 0.23 µM
CC50 (in vitro [5]): 50 µM
EC50 (Poliovirus 3; Enterovirus C): > 10 µM
EC50 (Coxsackievirus A9; [14]): 4.7 µM
EC50 (Enterovirus D68/Fermon; Enterovirus D): 2.4 µM
